Each structure is given as a SMILES string. Values after ≈ are worked out from the molar mass of the structure shown. Values joined by “and” are separate entries in the source; they are usually repeats but may differ in a detail not shown here. Identical values can stand only once. Counter-ions that a name gives are not always drawn. Bounds are passed on as bounds.

Experimental findings from patent US11020414B2, “Antimicrobial compositions with cysteamine” (priority 2010, dated 2021) are described below.

Assay [1] deals with Pseudomonas aeruginosa Pa058. Kind of assay: MIC determination, strain Pa058. The assay is classed as cell-based. The conditions noted are these: for MIC: read-out: MIC100. As for the experimental part: (§1) The bacterial inoculum was established by the dilution method from actively-growing cultures in Mueller-Hinton (MH) broth, standardized with 0.5 McFarland turbidity standard as described in the CLSI method M26-A.
(§2) Both the bacterial inoculum and the antimicrobial agents, including the compounds structurally related to cysteamine, were added simultaneously to the plates. The plates were incubated at 37° C. for 24 h and the optical density was read at 625 nm on a microtitre plate reader (BioTek Powerwave XS, Winooski, USA). […]
(§3) A number of compounds related in chemical structure to cysteamine were examined for antimicrobial activity; cystamine (dihydrochloride salt), taurine and 2,3-dimercaptosuccinic acid. Other compounds chemically related to cysteamine are known, but are toxic, and are therefore of no utility in a drug of this nature.

Assay [2] deals with Pseudomonas aeruginosa Pa01. Kind of assay: MIC determination, strain Pa01. Type of assay: cell-based. The conditions noted are these: for MIC: read-out: MIC100. As for the experimental part:
as §1, §2, §3

The test system of assay [3] is Pseudomonas aeruginosa NH57388A. The assay can be described thus: MIC determination, strain NH57388A. Type of assay: cell-based. The conditions noted are these: for MIC: read-out: MIC100. As for the experimental part:
as §1, §2, §3

Assay [4] has as its system Pseudomonas aeruginosa Pa14. Kind of assay: MIC determination, strain Pa14. Type of assay: cell-based. The following applies: for MIC: read-out: MIC100. As for the experimental part:
as §1, §2, §3

The subject of the next assay is P. aeruginosa ATCC 27853. The assay can be described thus: MIC and FIC of antibiotics with cysteamine, environments mimicking a CF lung. The assay is classed as cell-based, Pseudomonas aeruginosa. As for the experimental part: (§4) Both the bacterial inoculum and the antimicrobial agents, including the compounds structurally related to cysteamine, were added simultaneously to the plates. The plates were incubated at 37° C. for 24 h and the optical density was read at 625 nm on a microtitre plate reader (BioTek Powerwave XS, Winooski, USA). The MIC was obtained as the lowest concentration of antimicrobial showing total inhibition of bacterial growth.
(§5) The FIC corresponds to an interaction coefficient indicating whether the combination of antimicrobial agents is synergistic, additive, antagonist or neutral. The FIC is determined by comparing the activity of an agent in combination (MIC of agent A+agent B) with the activity of the agent alone (MIC of agent A or agent B) as follow (Singh et al., 2000): FIC=MICA[combination]/MICA[alone]+MICB[combination]/MICB[alone]
The range of concentrations of antimicrobial agents was 0-10 μg/ml.

For assay [5], the system named is Pseudomonas aeruginosa Pa058. Kind of assay: FIC index of combinations with conventional antibiotics, strain Pa058. Type of assay: cell-based. The following applies: strain Pa058 (Col^R, Cip^R Tob^R); for FICI (Additive) Cip: in combination with Ciprofloxacin; for FICI (Additive) Gent: in combination with Gentamicin. As for the experimental part:
as §1, §4, §5
(§6) Additive combinations of two antimicrobial agents are indicated by a FIC index of 1, whereas a FIC index<1 indicates synergistic combinations. Neutral combinations would give a FIC between 1 and 4, a FIC index higher than 4 indicates antagonist effects between the two antimicrobial agents.
(§7) The FIC was also calculated to assess the interaction of two antimicrobial agents in combination against bacterial samples.

The subject of assay [6] is Pseudomonas aeruginosa Pa57388A. Kind of assay: FIC index of combinations with conventional antibiotics, strain Pa57388A. The assay is classed as cell-based. The following applies: strain Pa57388A (Col^R); for FICI (Additive) Gent: in combination with Gentamicin; for FICI (Additive) Tob: in combination with Tobramycin. As for the experimental part:
as §1, §4, §5, §6, §7

Assay [7] concerns Pseudomonas aeruginosa Pa57388D. Kind of assay: FIC index of combinations with conventional antibiotics, strain Pa57388D. The assay is classed as cell-based. The following applies: strain Pa57388D (Col^R, Gent^R); for FICI (Additive) Tob / FICI (Synergy) Tob: in combination with Tobramycin. As for the experimental part:
as §1, §4, §5, §6, §7

Assay [8] relates to Pseudomonas aeruginosa Pa01. Kind of assay: FIC index of combinations with conventional antibiotics, strain Pa01. Type of assay: cell-based. The following applies: strain Pa01 (Col^R); for FICI (Additive) Cip: in combination with Ciprofloxacin. As for the experimental part: as §1, §4, §5, §6, §7
In assay [9] the test system is Pseudomonas aeruginosa Pa14. Kind of assay: FIC index of combinations with conventional antibiotics, strain Pa14. The assay is classed as cell-based. The conditions noted are these: strain Pa14 (Col^R); for FICI (Additive) Col: in combination with Colistin; for FICI (Additive) Gent: in combination with Gentamicin; for FICI (Additive) Tob: in combination with Tobramycin. On the procedure:
as §1, §4, §5, §6, §7

[10] abbreviates: in combination with Colistin, hydrochloride.
Where [11] appears, read: in combination with Ciprofloxacin, hydrochloride.
Setting [12] is: in combination with Gentamicin, hydrochloride.
[13] abbreviates: in combination with Tobramycin, hydrochloride.
The mark [14] stands for this setting: in combination with Ciprofloxacin.

Regarding `O=C(O)C(S)C(S)C(=O)O` (centres unmarked) [2,3-Dimercaptosuccinic Acid, 2,3-dimercaptosuccinic acid], the MIC50 in assay [1] lay within 500 to 2000 µg/mL (≈ 2.74 to 11 mM); in [2], 1000 to 2000 µg/mL (≈ 5.49 to 11 mM); in assay [3], 500 to 2000 µg/mL (≈ 2.74 to 11 mM); in assay [4], 1000 to 2000 µg/mL (≈ 5.49 to 11 mM). The MIC90 in assay [1] was 1000 to 2000 µg/mL (≈ 5.49 to 11 mM); in assay [2], more than 2000 µg/mL; in [3] it was 1000 to 2000 µg/mL (≈ 5.49 to 11 mM); in [4], 1000 to 2000 µg/mL (≈ 5.49 to 11 mM). The MIC was 2000 µg/mL (≈ 11 mM) in assay [1], more than 2000 µg/mL in assay [2], 2000 µg/mL (≈ 11 mM) in assay [3] and more than 2000 µg/mL in assay [4].
In the case of `O=C(O)c1cn(C2CC2)c2cc(N3CCNCC3)c(F)cc2c1=O` [Ciprofloxacin], the “MIC upon administration with cysteamine compared to administration alone” value in the assay with P. aeruginosa ATCC 27853 (environments mimicking those found in a CF lung) is listed as “greatly reduced”. The “antimicrobial effect in combination with cysteamine” value with P. aeruginosa ATCC 27853 (mucolytic environment) is given as “maintained”.
On to `NCCSSCCN` [Cystamine, cystamine], for which the MIC50 in assay [1] was in the range of 250 to 500 µg/mL (≈ 1.64 to 3.28 mM); in [2] it was 250 to 1000 µg/mL (≈ 1.64 to 6.57 mM); in assay [3] it was 500 to 1000 µg/mL (≈ 3.28 to 6.57 mM); in assay [4], 125 to 250 µg/mL (≈ 0.821 to 1.64 mM). Moreover, the MIC90 in [1], in assay [2], in assay [3] and in assay [4] was 1000 to 2000 µg/mL (≈ 6.57 to 13.1 mM) each time. In addition, the MIC in assay [1], in [2], in [3] and in [4] was 2000 µg/mL (≈ 13.1 mM) throughout.
As to `NCCS` [Cysteamine Hydrochloride (Cyst HCl), Cysteamine hydrochloride], the “FICI (Additive) Cip” value in [5] (hydrochloride) is 0.53 and 0.63 and 0.75 and 0.56; in assay [6] (setting [11]), 0.53 and 0.5 and 0.63 and 0.56 and 0.75; in [7] (setting [11]), 0.56 and 0.53; in [8] (hydrochloride), 0.75 and 0.52 and 0.56; in assay [9] (setting [11]), 0.56 and 0.63 and 0.5. Besides, the “FICI (Additive) Col” value in [5] (setting [10]) was 0.52 and 0.75 and 0.56 and 0.5; in assay [6] (setting [10]), 0.53 and 0.52 and 0.5; in [7] (setting [10]), 0.52 and 0.53; in assay [8] (setting [10]), 0.5; in assay [9] (hydrochloride), 0.51 and 0.5 and 0.53 and 0.52. Also, the “FICI (Synergy) Col” value in assay [5] (setting [10]) was 0.38; in assay [6] (setting [10]) it was 0.25 and 0.31 and 0.19 and 0.26; in assay [7] (setting [10]), 0.19 and 0.28 and 0.25 and 0.31. Besides, the “FICI (Additive) Gent” value was 0.75 in assay [5] (hydrochloride); 0.63 in assay [6] (hydrochloride); 0.53 and 0.52 in assay [7] (setting [12]); 0.75 and 0.5 in assay [8] (setting [12]); 0.5 and 0.63 and 0.56 in [9] (hydrochloride). In addition, the “FICI (Synergy) Cip” value is 0.19 and 0.25 in assay [6] (setting [11]); 0.31 and 0.38 in [7] (setting [11]); 0.31 and 0.37 and 0.38 in assay [9] (setting [11]). The “FICI (Additive) Tob” value was 0.63 and 0.75 in assay [6] (hydrochloride); 0.51 and 0.5 in assay [7] (hydrochloride); 0.51 and 0.53 and 0.5 in [8] (setting [13]); 0.63 and 0.75 and 0.5 in [9] (hydrochloride). Besides, the “FICI (Synergy) Tob” value in assay [7] (hydrochloride) is 0.25 and 0.31 and 0.19; in assay [8] (setting [13]) it was 0.25 and 0.31 and 0.38 and 0.28 and 0.19.
As for `CC(=O)N[C@@H](CS)C(=O)O` [N-Acetyl Cysteine (NAC), N-Acetyl cysteine, reference compound], the “FICI (Additive) Cip” value is 0.56 and 0.75 in [5]; 0.63 and 0.5 and 0.56 in assay [6] (setting [14]); 0.53 and 0.75 in assay [7] (setting [14]); 0.56 and 0.75 in [8]; 0.56 and 0.75 in assay [9] (setting [14]). In addition, the “FICI (Additive) Col” value in assay [5] (in combination with Colistin) was 0.53; in assay [6] (in combination with Colistin), 0.56 and 0.75 and 0.52; in assay [7] (in combination with Colistin), 0.56 and 0.75 and 0.53 and 0.5 and 0.51; in [9], 0.5 and 0.75. Moreover, the “FICI (Additive) Gent” value in [5] was 0.53; in [6] it was 0.63; in [9], 0.51 and 0.52. For the same compound, the “FICI (Additive) Tob” value in assay [5] (in combination with Tobramycin) is 0.75 and 0.53 and 0.51; in [6] it was 0.53; in assay [7], 0.56 and 0.63; in [8] (in combination with Tobramycin), 0.53 and 0.52 and 0.5 and 0.56; in [9], 0.63 and 0.5 and 0.75. The “FICI (Synergy) Tob” value in assay [7] was 0.25 and 0.31.
`NCCS(=O)(=O)O` [Taurine, taurine]: the MIC50 in assay [1], in assay [2], in assay [3] and in [4] was more than 2000 µg/mL each time. The MIC90 in assay [1], in assay [2], in [3] and in [4] was more than 2000 µg/mL in each case. The MIC in assay [1], in assay [2], in [3] and in [4] was more than 2000 µg/mL throughout.

What is called MIC50 is an inhibitory concentration at the 50% level, which refers to growth in some studies and to a panel of isolates in others. As usually defined, the MIC90 is an inhibitory concentration at the 90% level, which refers to growth in some studies and to a panel of isolates in others. Low readings indicate higher susceptibility, high ones lower susceptibility.
